Columns and labels:
[1] = system: participants with advanced cancer; parameters: method as in PMID 33707933; conditions: US participants with advanced cancer, once daily; cited from earlier work
participants with nAMD = assay: Phase I safety and tolerability of oral vorolanib (adverse events, DLT, MTD); assay type: in vivo; conditions: for Dose-limiting toxicities (DLT): dose escalation
Method: This phase I, open-label study consisting of dose escalation and dose expansion was conducted at 6 Chinese sites (NCT02452385 and CTR20150152). This study was approved by the local institutional review board at each participating site and conducted in accordance with the Declaration of Helsinki. All participants provided written informed consent.
The schedule of procedures is shown in Table S1 in the Supplementary Material. In the dose escalation, participants in each group were assigned to receive ascending doses of vorolanib (25, 50, 75 and 100 mg daily). The dose escalated to the next level in the absence of more than two of eight patients with dose-limiting toxicity (DLT), which was defined as a drug-related safety event during the first cycle (30 days) of treatment that was severe enough to require removal of the participant from the study. The maximum tolerated dose (MTD) was defined as the maximum dose at which no more than two of eight DLTs occurred in the group.
AEs were determined by the investigator per the Common Terminology Criteria for Adverse Events version 4.0.

SMILES: Cc1[nH]c(/C=C2\C(=O)Nc3ccc(F)cc32)c(C)c1C(=O)N[C@H]1CCN(C(=O)N(C)C)C1 [vorolanib, Vorolanib]
- Recommended dose of vorolanib monotherapy [1]: 400 mg
- TRAE: Elevated ALT (participants with nAMD; 25 mg, N = 16): 3 (18.8%) number of participants (%)
- TRAE: Elevated AST (participants with nAMD; 25 mg, N = 16): 3 (18.8%) number of participants (%)
- TRAE: Elevated blood pressure (participants with nAMD; 25 mg, N = 16): 4 (25.0%) number of participants (%)
- TRAE: Hair colour changes (participants with nAMD; 25 mg, N = 16): 0 number of participants (%)
- TRAE: Leucopenia (participants with nAMD; 25 mg, N = 16): 1 (6.3%) number of participants (%)
- TRAE: Neutropenia (participants with nAMD; 25 mg, N = 16): 1 (6.3%) number of participants (%)
- TRAE: QT interval prolongation (participants with nAMD; 25 mg, N = 16): 2 (12.5%) number of participants (%)
- TRAE: Thrombocytopenia (participants with nAMD; 25 mg, N = 16): 2 (12.5%) number of participants (%)
- TRAE: Elevated ALT (participants with nAMD; 50 mg, N = 16): 9 (56.3%) number of participants (%)
- TRAE: Elevated AST (participants with nAMD; 50 mg, N = 16): 8 (50.0%) number of participants (%)
- TRAE: Elevated blood pressure (participants with nAMD; 50 mg, N = 16): 6 (37.5%) number of participants (%)
- TRAE: Hair colour changes (participants with nAMD; 50 mg, N = 16): 4 (25.0%) number of participants (%)
- TRAE: Leucopenia (participants with nAMD; 50 mg, N = 16): 3 (18.8%) number of participants (%)
- TRAE: Neutropenia (participants with nAMD; 50 mg, N = 16): 3 (18.8%) number of participants (%)
- TRAE: QT interval prolongation (participants with nAMD; 50 mg, N = 16): 4 (25.0%) number of participants (%)
- TRAE: Thrombocytopenia (participants with nAMD; 50 mg, N = 16): 1 (6.3%) number of participants (%)
- Dose-limiting toxicities (DLT) (participants with nAMD; 75 mg cohort): one
- TRAE: Elevated ALT (participants with nAMD; 75 mg, N = 8): 5 (62.5%) number of participants (%)
- TRAE: Elevated AST (participants with nAMD; 75 mg, N = 8): 4 (50.0%) number of participants (%)
- TRAE: Elevated blood pressure (participants with nAMD; 75 mg, N = 8): 3 (37.5%) number of participants (%)
- TRAE: Hair colour changes (participants with nAMD; 75 mg, N = 8): 2 (25.0%) number of participants (%)
- TRAE: Leucopenia (participants with nAMD; 75 mg, N = 8): 3 (37.5%) number of participants (%)
- TRAE: Neutropenia (participants with nAMD; 75 mg, N = 8): 2 (25.0%) number of participants (%)
- TRAE: QT interval prolongation (participants with nAMD; 75 mg, N = 8): 1 (12.5%) number of participants (%)
- TRAE: Thrombocytopenia (participants with nAMD; 75 mg, N = 8): 3 (37.5%) number of participants (%)
- Dose-limiting toxicities (DLT) (participants with nAMD; 100 mg cohort): one
- TRAE: Elevated blood pressure (participants with nAMD; 100 mg, N = 1): 0 number of participants (%)
- TRAE: Hair colour changes (participants with nAMD; 100 mg, N = 1): 0 number of participants (%)
- TRAE: Leucopenia (participants with nAMD; 100 mg, N = 1): 0 number of participants (%)
- TRAE: Neutropenia (participants with nAMD; 100 mg, N = 1): 0 number of participants (%)
- TRAE: QT interval prolongation (participants with nAMD; 100 mg, N = 1): 0 number of participants (%)
- TRAE: Thrombocytopenia (participants with nAMD; 100 mg, N = 1): 0 number of participants (%)
- Drug-related AEs leading to drug discontinuation (participants with nAMD; 6 of 41 participants): 14.6%
- Fatal TRAEs (participants with nAMD; all cohorts): No fatal TRAEs
- Ocular TRAEs (participants with nAMD; all cohorts): no ocular TRAEs occurred
- Participants with at least one AE (participants with nAMD; all cohorts, N = 41): 39 (95.1%) participants (%)
- Participants with grade 3 or higher TRAEs (participants with nAMD; all cohorts, N = 41): 12 (29.3%) participants (%)
- Participants with treatment-related adverse events (TRAEs) (participants with nAMD; all cohorts, N = 41): 33 (80.5%) participants (%)
- Elevated alanine aminotransferase (most common nonocular TRAE) (participants with nAMD; all participants): 41.5%
- Dose-limiting toxicities (DLTs), total (participants with nAMD; dose escalation 25–100 mg daily): two
- Maximum tolerated dose (participants with nAMD; oral 25–100 mg daily): not reached

Reference: publication PMC10564794, “Safety and tolerability of oral vorolanib for neovascular (wet) age-related macular degeneration: a phase I, open-label study” (Eye, 2023)
